In patent US6692927B2, “Bax degradation involvement in tumor survival and progression” (University of South Florida, priority 2000, dated 2004):
Where a SMILES comes first, the peptide text is derived from it. [ ]: non-standard residue; d: D form. The star is where a group is joined. Nva = CCC[C@H](N)C(=O)O; Cbz = O=C(OCc1ccccc1)*

Legend:
Jurkat T cells = experiment: Western blot and Bax IP/ubiquitin blot in Jurkat T cells; assay type: cell-based, human
Procedure: FIGS. 8A-8D show proteasome inhibition accumulates Bax to mitochondria/cytoplasm and increases interaction between Bax and Bcl-2 proteins. Jurkat cells (0 h; FIG. 8A and FIG. 8B) or Jurkat cells overexpressing Bcl-2 (0 h; FIG. 8C and FIG. 8D) were treated by either 10 μM lactacystin (FIGS. 8A-8C), 50 μM LLnV (FIG. 8D), or 50 μM LLM (FIG. 8A and FIG. 8B) for the indicated hours. (FIG. 8A and FIG. 8B) Western blotting with antibodies to PARP and Bax were performed as described in FIG. 7. (FIG. 8C) Immunohistochemistry (see MATERIALS AND METHODS). Localization of Bax protein (green) and nuclei (red) are shown. (FIG. 8D) Bax immunoprecipitates, prepared by an agarose-conjugated N-20 Bax antibody, were immunoblotted first with the 6A7 Bax antibody (upper) and then reblotted with a Bcl-2 antibody (lower).
FIGS. 9A-9F show Bax degradation depends on ubiquitination, proteasome and ATP. (FIG. 9A) Jurkat cells (0 h) were treated with either 50 μM LLnV or 10 μM lactacystin, followed by preparation of Bax immunoprecipitates (with clone 6A7), which were immunoblotted with an ubiquitin antibody. Positions of putative ubiquitinated Bax proteins (p47, p55) are indicated at left. The nature of the ˜30 kDa and ˜84 kDa remains unclear. (FIG. 9B) The [^35S]-labeled Bax (upper) or Bcl-2 (lower) protein (1 μl) were incubated at 37° C. for 2 h with either buffer Z only (lane 1) or […] protein extract of MCF-7 cells grown exponentially (lane 2) or pretreated for 8 h with […] LLnV (lane 3). (FIG. 9C) The [^35S]-labeled Bax protein (1 μl) was incubated with either buffer Z only (lane 1) or 100 μg MCF-7 cell lysate at 37° C. for 4 h, in the presence of an indicated inhibitor (100 mM; lanes 3-8) or an equal volume of DMSO (lane 2) in buffer Z. A weak band of ˜16 kDa (indicated by an arrow) is probably an intermediate product of proteasome-mediated Bax degradation. (FIG. 9D) The proteasome in MCF-7 whole cell lysate (W lys, lane 1) was precipitated by using either ultraspin (ULS) or a proteasome subunit a6 antibody (IP). Both supernatant (lanes 2, 4) and pellet (lanes 3, 5) fractions were examined by Western blot assay using antibody to the proteasome a6 subunit (MW 33 kDa). (FIG. 9E) Bax degradation assay was performed as in FIG. 9B, with addition of buffer Z (lane 1) or 100 μg protein from MCF-7 whole cell lysate (lane 2), ultraspun supernatant (lane 3) or plus the pellet (lane 4), immunodepleted supernatant (lane 5) or plus a purified 20S proteasome ([…]; lane 6), or the purified proteasome alone (2 μg; lane 7). (FIG. 9F) Bax degradation assay was performed as in FIG. 9B, in the absence (lane 3) or presence of 10 mM ATP (lane 2) or 10 mM ATP-y-S (lane 4). […]

MCF-7 cells = experiment: Bax level and PARP cleavage in MCF-7 cells; assay type: cell-based, human; conditions: LLnV
Excerpt: Levels of BDA predict levels of Bax and consequently influence sensitivity of human cancer cells to proteasome inhibitor-induced apoptosis. Basal level of Bax protein in SV40-transformed WI-38 cells (VA13) was several-fold higher than that of human breast cancer MCF-7 cells (FIG. 1E, top panel, lanes 1 vs. 3). This is due to a much lower level of BDA in VA13 cells than in MCF-7 cells (FIG. 1E, lower panel, lanes 1 vs. 3). This conclusion is further confirmed by using increased amounts of protein extracts of each cell line in the cell-free BDA assay (FIG. 4A, top panel). […] In contrast, when MCF-7 cells were treated under the same conditions, Bax levels were not increased; PARP was cleaved only after 24 hours treatment, which is Bax-independent (FIG. 4B, lanes 6-9). Therefore, although highly preliminary, it appears that levels of BDA determine levels of Bax and consequently affect responsiveness of human cancer cells to proteasome inhibition-induced apoptosis.

| SMILES | p55 and p47 levels (putative ubiquitinated Bax) (Jurkat T cells; 10 μM lactacystin, 4 hours) | Bax accumulation and PARP cleavage (Jurkat T cells; 10 microM) | p55 and p47 levels (putative ubiquitinated Bax) (Jurkat T cells; 50 μM LLnV, 8 hours) | time after which PARP was cleaved (MCF-7 cells; Bax-independent) [h] | Bax levels (MCF-7 cells; same conditions as VA-13) |
| --- | --- | --- | --- | --- | --- |
| CC(=O)N[C@@H](CSC(=O)[C@]1([C@@H](O)C(C)C)NC(=O)[C@H](C)[C@@H]1O)C(=O)O [lactacystin] | significantly increased | induced Bax accumulation and PARP cleavage | – | – | – |
| CCC[C@@H](C=O)NC(=O)[C@H](CC(C)C)NC(=O)[C@H](CC(C)C)NC(=O)OCc1ccccc1 [LLnV] (Cbz-Leu-Leu-[Nva]-aldehyde) | – | – | significantly increased | 24 | not increased |
